The values that follow come from US20250325534A1, “MICROBIOCIDAL TETRAHYDROISOQUINOLINE DERIVATIVES” (SYNGENTA CROP PROTECTION AG, priority 2021, published 2025).

Structures are written as SMILES. Where only a bound is given, the exact number is not on record here.

Common to all, as to assay type: cell-based
The test system of assay [1] is Mycosphaerella graminicola. Put plainly: Mycosphaerella graminicola (Septoria tritici) / liquid culture (Septoria blotch). The note with it: Zymoseptoria tritici, 96 h, photometrically 4-5 days after application, read-out: control of Mycosphaerella graminicola. The method, then:
Example B19: Mycosphaerella graminicola (Septoria tritici)/Liquid Culture (Septoria Blotch) Conidia of the fungus from cryogenic storage are directly mixed into a nutrient broth (potato dextrose broth). After placing a DMSO solution of test compound into a microtiter plate (96-well format), the nutrient broth containing the fungal spores is added. The test plates are incubated at 24° C. and the inhibition of growth is determined photometrically 4-5 days after application.

In assay [2] the test system is Monographella nivalis. The assay can be described thus: Monographella nivalis (Microdochium nivale) / liquid culture (foot rot cereals). To be noted: 96 h, photometrically 4-5 days after application, read-out: control of Monographella nivalis. As for the experimental part:
Example B10: Monographella nivalis (Microdochium nivale)/Liquid Culture (Foot Rot Cereals) Conidia of the fungus from cryogenic storage are directly mixed into a nutrient broth (potato dextrose broth). After placing a DMSO solution of test compound into a microtiter plate (96-well format), the nutrient broth containing the fungal spores is added. The test plates are incubated at 24° C. and the inhibition of growth is determined photometrically 4-5 days after application.

Assay [3] concerns Mycosphaerella arachidis. The assay can be described thus: Mycosphaerella arachidis (Cercospora arachidicola) / liquid culture (early leaf spot). The note with it: 96 h, photometrically 4-5 days after application, read-out: control of Mycosphaerella arachidis. As for the experimental part:
Example B11: Mycosphaerella arachidis (Cercospora arachidicola)/Liquid Culture (Early Leaf Spot) Conidia of the fungus from cryogenic storage are directly mixed into a nutrient broth (potato dextrose broth). After placing a DMSO solution of test compound into a microtiter plate (96-well format), the nutrient broth containing the fungal spores is added. The test plates are incubated at 24° C. and the inhibition of growth is determined photometrically 4-5 days after application.

For the molecule `CC(=O)C1c2ccccc2C(c2cnn(C)c2)CN1C(=O)c1cc(-c2ccc(F)cc2F)on1` (centres unmarked) [Compound P-17, 1-[2-[5-(2,4-difluorophenyl)isoxazole-3-carbonyl]-4-(1-methylpyrazol-4-yl)-3,4-dihydro-1H-isoquinolin-1-yl]ethanone], the inhibition of growth at 20 ppm in assay [1] and in assay [2] was at least 80% throughout.
With `CC1c2ccc(OCC(F)F)cc2C(C)(c2cnn(C)c2)CN1C(=O)c1cc(-c2ccccc2)on1` (centres unmarked) [Compound P-26, [6-(2,2-difluoroethoxy)-1,4-dimethyl-4-(1-methylpyrazol-4-yl)-1,3-dihydroisoquinolin-2-yl]-(5-phenylisoxazol-3-yl)methanone], the inhibition of growth at 20 ppm in assay [3] and in assay [1] was at least 80% in each case.
For `CC1c2ccc(O)cc2C(C)(c2cnn(C)c2)CN1C(=O)c1cc(-c2ccc(F)cc2F)on1` (centres unmarked) [Compound P-35, [5-(2,4-difluorophenyl)isoxazol-3-yl]-[6-hydroxy-1,4-dimethyl-4-(1-methylpyrazol-4-yl)-1,3-dihydroisoquinolin-2-yl]methanone], the inhibition of growth at 20 ppm in assay [3] and in assay [1] was at least 80% in each case.
Turning to `CCC1c2ccccc2C(c2cnn(C)c2)CN1C(=O)c1cc(-c2ccc(F)cc2F)on1` (centres unmarked) [Compound P-36, [5-(2,4-difluorophenyl)isoxazol-3-yl]-[1-ethyl-4-(1-methylpyrazol-4-yl)-3,4-dihydro-1H-isoquinolin-2-yl]methanone], the inhibition of growth at 20 ppm in assay [1] and in assay [2] was at least 80% each time.
As to `COc1ccc(-c2cc(C(=O)N3Cc4ccccc4C(c4cnn(C)c4)C3)no2)c(F)c1` (centres unmarked) [Compound P-74, [5-(2-fluoro-4-methoxy-phenyl)isoxazol-3-yl]-[4-(1-methylpyrazol-4-yl)-3,4-dihydro-1H-isoquinolin-2-yl]methanone], the inhibition of growth at 20 ppm in assay [2] is at least 80%.
`Cc1cccc2c1CN(C(=O)c1cc(-c3ccc(F)cc3F)on1)CC2c1c(C)nn(C)c1C` (centres unmarked) [Compound P-114, [5-(2,4-difluorophenyl)isoxazol-3-yl]-[8-methyl-4-(1,3,5-trimethylpyrazol-4-yl)-3,4-dihydro-1H-isoquinolin-2-yl]methanone]: the inhibition of growth at 20 ppm in assay [3] and in assay [1] was at least 80% in each case.
On to `Cc1nn(C)c(C)c1C1CN(C(=O)c2cc(-c3ccc(F)cc3F)on2)Cc2cccc(F)c21` (centres unmarked) [Compound P-123, [5-(2,4-difluorophenyl)isoxazol-3-yl]-[5-fluoro-4-(1,3,5-trimethylpyrazol-4-yl)-3,4-dihydro-1H-isoquinolin-2-yl]methanone], for which the inhibition of growth at 20 ppm in assay [3] and in assay [1] was at least 80% throughout.
In the case of `Cc1ccc2c(c1)C(c1cnn(C)c1)CN(C(=O)c1cc(-c3ccccc3)on1)C2` (centres unmarked) [Compound P-137, [6-methyl-4-(1-methylpyrazol-4-yl)-3,4-dihydro-1H-isoquinolin-2-yl]-(5-phenylisoxazol-3-yl)methanone], the inhibition of growth at 20 ppm in assay [3] and in assay [1] was at least 80% in each case.
Turning to `Cn1cc(C2CN(C(=O)c3ncc(-c4ccccc4)s3)Cc3ccccc32)cn1` (centres unmarked) [Compound P-156, [4-(1-methylpyrazol-4-yl)-3,4-dihydro-1H-isoquinolin-2-yl]-(5-phenylthiazol-2-yl)methanone], the inhibition of growth at 20 ppm in assay [1] and in assay [2] was at least 80% in each case.
`Cn1cc(C2CN(C(=O)c3cc(-c4ccc(F)cc4)no3)Cc3ccccc32)cn1` (centres unmarked) [Compound P-160, [3-(4-fluorophenyl)isoxazol-5-yl]-[4-(1-methylpyrazol-4-yl)-3,4-dihydro-1H-isoquinolin-2-yl]methanone]: the inhibition of growth at 20 ppm in assay [1] and in assay [2] was at least 80% throughout.
As to `Cn1cc(C2CN(C(=O)c3cc(-c4ccccc4)ns3)Cc3ccccc32)cn1` (centres unmarked) [Compound P-161, [4-(1-methylpyrazol-4-yl)-3,4-dihydro-1H-isoquinolin-2-yl]-(3-phenylisothiazol-5-yl)methanone], the inhibition of growth at 20 ppm in assay [1] was at least 80%.
`Cn1cc(C2CN(C(=O)c3cnc(-c4ccccc4)s3)Cc3ccccc32)cn1` (centres unmarked) [Compound P-164, [4-(1-methylpyrazol-4-yl)-3,4-dihydro-1H-isoquinolin-2-yl]-(2-phenylthiazol-5-yl)methanone]: the inhibition of growth at 20 ppm in assay [1] and in assay [2] was at least 80% in each case.
As to `COc1cccc(-c2cc(C(=O)N3Cc4ccccc4C(c4cnn(C)c4)C3)no2)c1` (centres unmarked) [Compound P-167, [5-(3-methoxyphenyl)isoxazol-3-yl]-[4-(1-methylpyrazol-4-yl)-3,4-dihydro-1H-isoquinolin-2-yl]methanone], in assay [1], the inhibition of growth at 20 ppm is at least 80%.
As to `Cn1cc(C2CN(C(=O)c3cc(-c4ccc(F)c(F)c4)on3)Cc3ccccc32)cn1` (centres unmarked) [Compound P-172, [5-(3,4-difluorophenyl)isoxazol-3-yl]-[4-(1-methylpyrazol-4-yl)-3,4-dihydro-1H-isoquinolin-2-yl]methanone], the inhibition of growth at 20 ppm in assay [3] and in assay [1] was at least 80% throughout.
`Cn1cc(C2CN(C(=O)c3cc(C4CCCC4)on3)Cc3ccccc32)cn1` (centres unmarked) [Compound P-176, (5-cyclopentylisoxazol-3-yl)-[4-(1-methylpyrazol-4-yl)-3,4-dihydro-1H-isoquinolin-2-yl]methanone]: the inhibition of growth at 20 ppm in assay [3] and in assay [1] was at least 80% in each case.
For `Cn1cc(C2CN(C(=O)c3cc(C4CCCCC4)on3)Cc3ccccc32)cn1` (centres unmarked) [Compound P-177, (5-cyclohexylisoxazol-3-yl)-[4-(1-methylpyrazol-4-yl)-3,4-dihydro-1H-isoquinolin-2-yl]methanone], the inhibition of growth at 20 ppm in assay [1] and in assay [2] was at least 80% throughout.
Take `Cn1cc(C2CN(C(=O)c3cc(C4(C)CC4)on3)Cc3ccccc32)cn1` (centres unmarked) [Compound P-184, [5-(1-methylcyclopropyl)isoxazol-3-yl]-[4-(1-methylpyrazol-4-yl)-3,4-dihydro-1H-isoquinolin-2-yl]methanone]: in assay [1], the inhibition of growth at 20 ppm is at least 80%.
In the case of `Cn1cc(C2CN(C(=O)c3cc(C(C)(C)C)on3)Cc3ccccc32)cn1` (centres unmarked) [Compound P-195, (5-tert-butylisoxazol-3-yl)-[4-(1-methylpyrazol-4-yl)-3,4-dihydro-1H-isoquinolin-2-yl]methanone], the inhibition of growth at 20 ppm in assay [1] is at least 80%.
As to `Cn1cc(C2CN(C(=O)c3cc(-c4ccccc4Cl)on3)Cc3ccccc32)cn1` (centres unmarked) [Compound P-197, [5-(2-chlorophenyl)isoxazol-3-yl]-[4-(1-methylpyrazol-4-yl)-3,4-dihydro-1H-isoquinolin-2-yl]methanone], the inhibition of growth at 20 ppm in assay [1] and in assay [2] was at least 80% each time.
Consider `Cn1cc(C2CN(C(=O)c3cc(C4CC4)on3)Cc3ccccc32)cn1` (centres unmarked) [Compound P-202, (5-cyclopropylisoxazol-3-yl)-[4-(1-methylpyrazol-4-yl)-3,4-dihydro-1H-isoquinolin-2-yl]methanone], for which the inhibition of growth at 20 ppm in assay [1] is at least 80%.
Same read-out and setting: under `CC(C)C1(c2cnn(C)c2)CN(C(=O)c2cc(-c3ccc(F)cc3F)on2)Cc2ccccc21` (centres unmarked) [Compound P-219, [5-(2,4-difluorophenyl)isoxazol-3-yl]-[4-isopropyl-4-(1-methylpyrazol-4-yl)-1,3-dihydroisoquinolin-2-yl]methanone] stands at least 80%; under `Cc1c(C2CN(C(=O)c3nnc(C4CC4)s3)Cc3ccccc32)cnn1C` (centres unmarked) [Compound P-233, (5-cyclopropyl-1,3,4-thiadiazol-2-yl)-[4-(1,5-dimethylpyrazol-4-yl)-3,4-dihydro-1H-isoquinolin-2-yl]methanone], at least 80%.
As for `Cc1c(C2CN(C(=O)c3cc(C4CCCC4)on3)Cc3ccccc32)cnn1C` (centres unmarked) [Compound P-235, (5-cyclopentylisoxazol-3-yl)-[4-(1,5-dimethylpyrazol-4-yl)-3,4-dihydro-1H-isoquinolin-2-yl]methanone], the inhibition of growth at 20 ppm in assay [1] is at least 80%.
On to `Cc1c(C2CN(C(=O)c3cc(C4CC4)on3)Cc3ccccc32)cnn1C` (centres unmarked) [Compound P-237, (5-cyclopropylisoxazol-3-yl)-[4-(1,5-dimethylpyrazol-4-yl)-3,4-dihydro-1H-isoquinolin-2-yl]methanone], for which, in assay [1], the inhibition of growth at 20 ppm is at least 80%.
On the same count and under the same terms, under `CCc1nnc(C(=O)N2Cc3ccccc3C(c3cnn(C)c3C)C2)s1` (centres unmarked) [Compound P-244, [4-(1,5-dimethylpyrazol-4-yl)-3,4-dihydro-1H-isoquinolin-2-yl]-(5-ethyl-1,3,4-thiadiazol-2-yl)methanone] stands at least 80%.
As for `CC(C)C1(c2cnn(C)c2)CN(C(=O)c2cc(-c3ccc(F)cc3F)on2)Cc2ccccc21` (centres unmarked) [Compound P-246, [5-(2,4-difluorophenyl)isoxazol-3-yl]-[4-isopropyl-4-(1-methylpyrazol-4-yl)-1,3-dihydroisoquinolin-2-yl]methanone], the inhibition of growth at 20 ppm in assay [2] was at least 80%.
Turning to `CCC1(c2cnn(C)c2)CN(C(=O)c2cc(-c3ccc(F)cc3F)on2)Cc2ccccc21` (centres unmarked) [Compound P-248, [5-(2,4-difluorophenyl)isoxazol-3-yl]-[4-ethyl-4-(1-methylpyrazol-4-yl)-1,3-dihydroisoquinolin-2-yl]methanone], the inhibition of growth at 20 ppm in assay [2] was at least 80%.
